Assays:
Type in all cases: cell-based, human
CD44+ Du145 cells = test: Clonal and sphere formation assays; settings: miR-141 vs NC oligos, 30 nM, 48 h transfection
Procedure: Average % of CD44^+ cells (as determined by flow analysis; n=3-5) is indicated for each cell type (UD, undetectable). […] Purified CD44^+ Du145 cells were transfected with NC or miR-141 oligos (30 nM, 48 h) and then plated for clonal (1D & 1E) and sphere (1F) assays. Bars represent mean±SD. *, P<0.05; **, P<0.01. […] Shown are tumor images, cell numbers injected (100,000 cells per injection for all models), site of injection (s.c, subcutaneously) and days (d) when tumors were harvested. Tumor weight and incidences with corresponding P values are also indicated. ns, not significant. […] For 1st generation (1°) sphere assays, 1,000 cells per well were plated in triplicate for each group in 12-well plate and results scored in 11 days. For 2nd generation (2°), the 1° spheres were harvested, digested with Collagenase and Trypsin into single cells, 1,000 cells/well were plated, and results scored in 10 days. Quantification of the colonies was plotted (1 L; **P<0.01). […]
For clonal assays, cultured prostate cancer cells or human prostate cancer cells freshly purified from patient primary tumors were plated at a clonal density (i.e., 100 cells/well) in a 6-well plate. The number of holoclones (33) was counted several days later. […] Floating spheres that arose in 1-2 weeks were counted. […]

[1] = tested on: E-Cadherin and ZEB-1 in PC3 and Du145 cells; test: Western blotting of E-Cadherin and ZEB-1; settings: bulk Du145 and PC3 cells; 30 or 60 nM, 48 h
Procedure: FIGS. 3A-3J show partial suppression of epithelial to mesenchymal transition by miR-141 and CD44 as a direct target of miR-141. FIGS. 3A-3B show qPCR analysis of epithelial to mesenchymal transition markers in bulk (FIG. 3A) or CD44^+ (FIG. 3B) Du145 cells transfected with the miR-141 oligos (30 nM; 48 h). Results were presented as the relative expression levels over the cells transfected with the NC oligos. […] GAPDH was used as control and the relative protein levels after normalizing to GAPDH and NC controls were indicated below each lane. […] Shown below is the actual sequence in the region with the mutated miR-141 binding sequence indicated in grey (below). […] Shown are representative images. […] Du145 cells were co-transfected with NC or miR-141 oligos (30 nM) together with pBabe empty vector or pBabe-CD44 vector. After 48 h, cells were harvested for invasion assays. Bars, mean±SD. *, P<0.05; **, P<0.01.

CDC42 = test: Rho family GTPase activity assay (G-LISA); settings: Du145 cells, Lenti-141 MOI 10, 48 h
Procedure: (§1) Du145 cells transfected with NC or miR-141 oligos at the two doses and time intervals indicated were used in Western blotting. Indicated below are relative expression levels (normalized to respective GAPDH and compared to NC) of each protein determined by densitometric scanning of the individual bands. […] Bars, mean±SD. *P<0.05; **P<0.01. […] Du145 cells were co-transfected with NC or miR-141 oligos (30 nM) in combination with pcDNA3.1 (control) vector or pcDNA-RAC1 or pcDNA-CDC42 expression vector. After 48 h, cells were harvested for invasion assays. […] Du145 cells were infected with Lenti-141 or control lentivirus (MOI 10, 48 h) and then harvested to measure the Rho GTPase activities. Bars, mean±SD. *P<0.05. […] Du145 cells were transfected with the antisense oligos to NC or miR-141 (anti-141; 30 nM) and then used in invasion assays (FIG. 5E). In FIG. 5F and FIG. 5G Du145 cells were transfected with 10 nM of scramble siRNA control (siCon) or siRNAs targeting RAC1 (FIG. 5F) or CDC42 (FIG. 5G), either alone or in combination of anti-141 (30 nM). 48 h later, cells were harvested for invasion assays. Bars, mean±SD. *P<0.05; **P<0.01.
(§2) The activity of Rho family of small GTPases including RhoA, RAC1 and CDC42 were detected using G-LISA small G-protein activation assays per the manufacturer's instructions (Cytoskeleton, Inc., Denver, Colo.; catalog# BK135).

RAC1 = test: Rho family GTPase activity assay (G-LISA); settings: Du145 cells, Lenti-141 MOI 10, 48 h
Procedure: as §1, §2

RhoA = test: Rho family GTPase activity assay (G-LISA); settings: Du145 cells, Lenti-141 MOI 10, 48 h
Procedure: as §1, §2

Substance: miR-141: miR-141 mirVana mimics (Life Technologies); microRNA-141 oligonucleotide may have SEQ ID NO: 1; in some experiments over-expressed by lentiviral vectors (UAACACUGUCUGGUAAAGAUGG; listed as RNA, further chemistry not given here) [miR-141 mirVana mimics (Life Technologies); in some experiments over-expressed by lentiviral vectors]
- clonogenic capacity (CD44+ Du145 cells): inhibited
- sphere-forming capacity (CD44+ Du145 cells): inhibited
- E-cadherin (CDH1) protein level [1]: increased
- ZEB1 protein level [1]: reduced
- GTPase activity of CDC42 (CDC42): suppressed
- GTPase activity of RAC1 (RAC1): suppressed
- GTPase activity of RhoA (RhoA): not

Source: US10202604B2, “Methods of using microRNA-141” (Stemirna Therapeutics Co., Ltd., priority 2016, dated 2019)
